This passage reports IC50 results from US20260184712A1, “Heterocyclic Compounds as ENT Inhibitors and Compounds for Use in the Treatment of Cancers” (iTeos Belgium SA, priority 2022, published 2026).

The subject of test [1] is stimulated primary human T cells. The experiment in a line: T cell proliferation assay, Condition A (X-VIVO15). In kind it is cell-based. As to conditions: Homo sapiens, T-cell, 96 h; Condition A: X-VIVO15 medium; anti-CD3/anti-CD28 beads, ATP, 4 days; CFSE-lo T cells. The method in brief: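 CFSE-labelled human CD3+ T cells (2×10^4/well) in serum-free X-VIVO15 were activated with anti-CD3/CD28 beads (1 bead:2 cells), pre-incubated 30 min with inhibitor, then cultured with 100 uM ATP for 4 days at 37 °C. Flow cytometry measured %CFSE^lo cells, and IC50/IC90 came from log-concentration curve fits.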

Test [2] has the same test system. Kind of test: T cell proliferation assay, Condition B (X-VIVO15, 2% HSA and 0.1% AAG). In kind it is cell-based. As to conditions: Homo sapiens, T-cell, 96 h; Condition B: X-VIVO15 medium containing HSA and α1-Acid Glycoprotein; anti-CD3/anti-CD28 beads, ATP, 4 days; CFSE-lo T cells. The method in brief:
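CFSE-labelled CD3+ T cells from healthy donors (2×10^4/well) in X-VIVO15 with 2% HSA and 0.1% AAG were stimulated with anti-CD3/CD28 beads. After 30 min pre-incubation with inhibitor, ATP was added and cells were cultured 4 days at 37° C. Flow cytometry gave % CFSE^lo cells, with IC50/IC90 and pICF from curve fits.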

As to `C[C@H]1O[C@@H](n2c(NC3CCCC3)nc3c(OCc4ccc([N+](=O)[O-])cc4)ncnc32)[C@H](O)[C@@H]1O` [Compound 6], the concentration for half-maximal inhibition (IC50) in test [1] was less than 1 nM; in test [2] it was 1 to 20 nM.
For `C[C@H]1O[C@@H](n2c(NC3CCC(O)CC3)nc3c(OCc4ccc([N+](=O)[O-])cc4)ncnc32)[C@H](O)[C@@H]1O` (some centres unmarked) [Compound 28] the same measures were less than 1 nM and 1 to 20 nM.
Turning to `C[C@H]1O[C@@H](n2c(NC3CCOCC3)nc3c(OCc4ccc(C#N)cc4)ncnc32)[C@H](O)[C@@H]1O` [Compound 73], the results for the concentration for half-maximal inhibition (IC50) in test [1] and in test [2] were less than 1 nM and 20 to 500 nM, respectively.
In the case of `C[C@H]1O[C@@H](n2c(NC3CCOCC3)nc3c(OCc4ccc(OC(F)F)nc4)ncnc32)[C@H](O)[C@@H]1O` [Compound 75], the results for the concentration for half-maximal inhibition (IC50) in test [1] and in test [2] were less than 1 nM and 20 to 500 nM, respectively.
Turning to `C[C@H]1O[C@@H](n2c(N[C@H]3CCC(F)(F)C3)nc3c(OCc4ccc(C#N)cc4)ncnc32)[C@H](O)[C@@H]1O` [Compound 82], the IC50 was less than 1 nM in test [1] and 20 to 500 nM in test [2].
Turning to `C[C@H]1O[C@@H](n2cnc3c(SCc4ccc([N+](=O)[O-])cc4)ncnc32)[C@H](O)[C@@H]1O` [Compound 147], the IC50 fell in the range of 1 to 20 nM in test [1] and 20 to 500 nM in test [2].
For `C[C@H]1O[C@@H](n2cnc3c(N4CCc5ccc([N+](=O)[O-])cc5C4)ncnc32)[C@H](O)[C@@H]1O` [Compound 151] the same measures were less than 1 nM and 20 to 500 nM.
For `C[C@H]1O[C@@H](n2cnc3c(OCc4ccc([N+](=O)[O-])cc4)ncnc32)[C@H](O)[C@@H]1O` [Compound 166] the same measures were 1 to 20 nM and 20 to 500 nM.
For `C[C@H]1O[C@@H](n2cnc3c(OCc4ccc(OC(F)F)cc4)ncnc32)[C@H](O)[C@@H]1O` [Compound 173], in that order: 1 to 20 nM and 20 to 500 nM.
As to `OCCOC[C@H]1O[C@@H](n2cnc3c(OCc4ccc(OC(F)(F)F)cc4)ncnc32)[C@H](O)[C@@H]1O` [Compound 175], the half-inhibitory concentration (IC50) in test [1] is 1 to 20 nM; in test [2], 20 to 500 nM.

By IC50 is commonly meant the concentration that inhibits the measured activity by half. Higher therefore signals lower potency.
